Reference: US20240197666A1, “DITERPENOID COMPOUNDS THAT ACT ON PROTEIN KINASE C (PKC)” (K-Gen Therapeutics, Inc., priority 2021, published 2024)

Columns and labels:
Namalwa (Lymphoma) = experiment: Proliferation of Namalwa; assay type: cell-based; conditions: for IC50: read-out: IC50 Namalwa (Lymphoma)
Procedure, shortened: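 Cells seeded per line (KP-4 800-1000, Panc2.13 3000, Namalwa and Mino 5000-10000 cells/well), 24 h at 37° C, then 96 h with 3-fold serial dilutions of compound, final DMSO ≤0.25%. CellTiter Glo luminescence read; % inhibition vs DMSO-only max, IC50 fitted. Potency also normalized as ratio to comparator K101 across batches.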

Hela cells = experiment: In vitro scratch wound healing assay; assay type: cell-based; conditions: 24h
Procedure: Scratch wound healing assay creates a gap by scratching a confluent monolayer of cells to mimic a wound and then measures the ability of cells to fill up the gap (wound) in the presence of DMSO or test compounds. 1.2-1.5×10^5 Hela cells in 1 mL media RPMI-1640 with 10% FBS were seeded in 24-well plates. Cells were starved for overnight in the same media without FBS when cells became confluent. After starvation, a scratch was made in the middle of the well and the plates were washed three times to remove detached cells. DMSO or different concentrations of compounds were diluted and added to the cells. The assay plates were put into Incucyte S3 and scanned with 4× scanner setting regularly. The imaging results were exported and the wound area was analyzed by ImageJ. Wound healing or closure was calculated by the following formula: wound healing %=(wound area at 0h−wound area at 24h)/wound area 0h*100%. Relative wound healing was calculated by dividing wound healing % of compound treatment to that of DMSO*100%.

[1] = system: NFκB-driven transcription in HeLa-NFκB luciferase reporter cell line; experiment: NFκB luciferase reporter assay; conditions: Homo sapiens, HeLa, 16 h, read-out: NFκB-luc HeLa cells EC50 (μM)
PANC1 cells = experiment: Sphere formation assay; assay type: cell-based; conditions: Homo sapiens, PANC-1, read-out: concentration exhibiting at least 50% inhibition on the sphere forming efficiency
Procedure: A group of diterpenoid compounds of the present disclosure were tested to assess their effects on blocking formation of spheres from cancer cell lines such as PANC1, a K-Ras mutant pancreatic cell line. Briefly, PANC1 cells were harvested, re-suspended as single cell suspensions, counted and seeded into Ultra Low Attachment Culture 96-well plate (Corning, Cat #3474) at 100 cells/well in 100 μl of complete media (with 10% FBS) containing 2% Matrigel (Corning, Cat #354234) and DMSO or compounds. Six replicates per condition were seeded. The seeded cells were placed in the 37° C. tissue culture incubator. 10 μl of low serum containing media (with 0.1% FBS) was added to each well every week. Spheres formed after 3-4 weeks were counted. Sphere forming efficiency was expressed as percentage of # of spheres/ # of cells seeded.

human PBMC cells = experiment: Cytokine/chemokine gene expression in human PBMC (TaqMan); assay type: cell-based; conditions: 4 h;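 on Gene Relative Expression CCL2: 2^-ΔΔCt fold change vs DMSO control normalized to 18S and GAPDH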;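 on Gene Relative Expression GM-CSF: 2^-ΔΔCt fold change vs DMSO control normalized to 18S and GAPDH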;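 on Gene Relative Expression IFN-α: 2^-ΔΔCt fold change vs DMSO control normalized to 18S and GAPDH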;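 on Gene Relative Expression IFNγ: 2^-ΔΔCt fold change vs DMSO control normalized to 18S and GAPDH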
Procedure: Each treatment condition was performed in duplicates.

## CC1=C[C@H]2[C@@]3(O)[C@H](C)C[C@]4(OC(=O)[C@@H](N)CC5CCCCC5)[C@H]([C@@H]3C=C(CO)C[C@]2(O)C1=O)C4(C)C
Namalwa (Lymphoma)
  ratio (IC50 of K101)/(IC50 of compound) Namalwa: 2.03
  IC50: 30 to 60 nM
Hela cells; 30 nM
  Relative wound healing to control (%): 123%
Hela cells; 100 nM
  Relative wound healing to control (%): 351%
Hela cells; 300 nM
  Relative wound healing to control (%): 287%
[1]
  EC50: 0.03 to 0.06 µM

## CC1=C[C@H]2[C@@]3(O)[C@H](C)C[C@]4(OC(=O)[C@@H](N)C5Cc6ccccc6C5)[C@H]([C@@H]3C=C(CO)C[C@]2(O)C1=O)C4(C)C
Namalwa (Lymphoma)
  ratio (IC50 of K101)/(IC50 of compound) Namalwa: 1.6
  IC50: 30 to 60 nM
PANC1 cells
  IC50: ≤ 150 nM
Hela cells; 30 nM
  Relative wound healing to control (%): 210%
Hela cells; 100 nM
  Relative wound healing to control (%): 248%
Hela cells; 300 nM
  Relative wound healing to control (%): 238%
[1]
  EC50: 0.06 to 0.1 µM

## CC1=C[C@H]2[C@@]3(O)[C@H](C)C[C@]4(OC(=O)[C@@H](N)[C@]56C[C@H]7C[C@H](C[C@H](C7)C5)C6)[C@H]([C@@H]3C=C(CO)C[C@]2(O)C1=O)C4(C)C
Namalwa (Lymphoma)
  ratio (IC50 of K101)/(IC50 of compound) Namalwa: 18.2
  IC50: 1 to 10 nM
PANC1 cells
  IC50: ≤ 50 nM
Human PBMC cells; 0.01 μM
  Gene Relative Expression CCL2: 5.58
  Gene Relative Expression GM-CSF: 1.59
  Gene Relative Expression IFN-α: 0.78
  Gene Relative Expression IFNγ: 1.69
  Gene Relative Expression IL-1β: 0.59
  Gene Relative Expression IL-2: 3.06
  Gene Relative Expression IL-4: 0.84
  Gene Relative Expression IL-6: 1.17
  Gene Relative Expression IL-8: 0.71
  Gene Relative Expression IL-10: 1.12
  Gene Relative Expression IL-12p40: 0.89
  Gene Relative Expression IL-12p70: 1.03
  Gene Relative Expression IL-13: 3.10
  Gene Relative Expression IL-18: 0.26
  Gene Relative Expression ISG15: 1.01
  Gene Relative Expression MIP1a (CCL3): 1.65
  Gene Relative Expression MX1: 0.84
  Gene Relative Expression OAS1: 0.74
  Gene Relative Expression TNF-α: 2.39
Human PBMC cells; 0.03 μM
  Gene Relative Expression CCL2: 3.59
  Gene Relative Expression GM-CSF: 8.38
  Gene Relative Expression IFN-α: 0.46
  Gene Relative Expression IFNγ: 3.82
  Gene Relative Expression IL-1β: 2.26
  Gene Relative Expression IL-2: 7.78
  Gene Relative Expression IL-4: 2.54
  Gene Relative Expression IL-6: 0.86
  Gene Relative Expression IL-8: 0.54
  Gene Relative Expression IL-10: 0.41
  Gene Relative Expression IL-12p40: 0.32
  Gene Relative Expression IL-12p70: 0.87
  Gene Relative Expression IL-13: 52.65
  Gene Relative Expression IL-18: 0.06
  Gene Relative Expression ISG15: 1.33
  Gene Relative Expression MIP1a (CCL3): 2.82
  Gene Relative Expression MX1: 1.01
  Gene Relative Expression OAS1: 0.78
  Gene Relative Expression TNF-α: 4.48
Human PBMC cells; 0.10 μM
  Gene Relative Expression CCL2: 0.38
  Gene Relative Expression GM-CSF: 16.06
  Gene Relative Expression IFN-α: 0.31
  Gene Relative Expression IFNγ: 18.08
  Gene Relative Expression IL-1β: 3.00
  Gene Relative Expression IL-2: 3.29
  Gene Relative Expression IL-4: 2.77
  Gene Relative Expression IL-6: 6.72
  Gene Relative Expression IL-8: 0.60
  Gene Relative Expression IL-10: 0.09
  Gene Relative Expression IL-12p40: 0.22
  Gene Relative Expression IL-12p70: 0.76
  Gene Relative Expression IL-13: 101.38
  Gene Relative Expression IL-18: 0.06
  Gene Relative Expression ISG15: 1.54
  Gene Relative Expression MIP1a (CCL3): 5.73
  Gene Relative Expression MX1: 0.99
  Gene Relative Expression OAS1: 0.69
  Gene Relative Expression TNF-α: 6.25
Hela cells; 3 nM
  Relative wound healing to control (%): 191%
Hela cells; 10 nM
  Relative wound healing to control (%): 198%
Hela cells; 30 nM
  Relative wound healing to control (%): 272%
[1]
  EC50: 0.001 to 0.01 µM

## CC1=C[C@H]2[C@@]3(O)[C@H](C)C[C@]4(OC(=O)[C@H](N)CCCCCCc5ccccc5)[C@H]([C@@H]3C=C(CO)C[C@]2(O)C1=O)C4(C)C
Namalwa (Lymphoma)
  ratio (IC50 of K101)/(IC50 of compound) Namalwa: 4.93
  IC50: 10 to 30 nM
PANC1 cells
  IC50: ≤ 150 nM
Human PBMC cells; 0.03 μM
  Gene Relative Expression CCL2: 4.55
  Gene Relative Expression GM-CSF: 1.89
  Gene Relative Expression IFN-α: 1.66
  Gene Relative Expression IFNγ: 1.62
  Gene Relative Expression IL-1β: 0.54
  Gene Relative Expression IL-2: 1.71
  Gene Relative Expression IL-6: 0.74
  Gene Relative Expression IL-8: 0.80
  Gene Relative Expression IL-10: 1.27
  Gene Relative Expression IL-12p40: 0.74
  Gene Relative Expression IL-12p70: 1.02
  Gene Relative Expression IL-13: 0.40
  Gene Relative Expression IL-18: 0.47
  Gene Relative Expression ISG15: 0.97
  Gene Relative Expression MIP1a (CCL3): 1.86
  Gene Relative Expression MX1: 0.65
  Gene Relative Expression OAS1: 0.64
  Gene Relative Expression TNF-α: 1.38
Human PBMC cells; 0.10 μM
  Gene Relative Expression CCL2: 3.12
  Gene Relative Expression GM-CSF: 7.74
  Gene Relative Expression IFN-α: 0.73
  Gene Relative Expression IFNγ: 3.47
  Gene Relative Expression IL-1β: 1.58
  Gene Relative Expression IL-2: 7.65
  Gene Relative Expression IL-4: 1.61
  Gene Relative Expression IL-6: 1.14
  Gene Relative Expression IL-8: 0.53
  Gene Relative Expression IL-10: 0.48
  Gene Relative Expression IL-12p40: 0.45
  Gene Relative Expression IL-12p70: 0.93
  Gene Relative Expression IL-13: 47.45
  Gene Relative Expression IL-18: 0.09
  Gene Relative Expression ISG15: 1.16
  Gene Relative Expression MIP1a (CCL3): 2.39
  Gene Relative Expression MX1: 0.72
  Gene Relative Expression OAS1: 0.55
  Gene Relative Expression TNF-α: 4.04
Human PBMC cells; 0.3 μM
  Gene Relative Expression CCL2: 2.09
  Gene Relative Expression GM-CSF: 10.50
  Gene Relative Expression IFN-α: 0.95
  Gene Relative Expression IFNγ: 18.57
  Gene Relative Expression IL-1β: 1.53
  Gene Relative Expression IL-2: 3.41
  Gene Relative Expression IL-4: 2.57
  Gene Relative Expression IL-6: 4.85
  Gene Relative Expression IL-8: 0.59
  Gene Relative Expression IL-10: 0.06
  Gene Relative Expression IL-12p40: 0.69
  Gene Relative Expression IL-12p70: 0.61
  Gene Relative Expression IL-13: 78.90
  Gene Relative Expression IL-18: 0.04
  Gene Relative Expression ISG15: 1.14
  Gene Relative Expression MIP1a (CCL3): 3.37
  Gene Relative Expression MX1: 0.57
  Gene Relative Expression OAS1: 0.42
  Gene Relative Expression TNF-α: 4.13
Hela cells; 10 nM
  Relative wound healing to control (%): 221%
Hela cells; 30 nM
  Relative wound healing to control (%): 239%
Hela cells; 100 nM
  Relative wound healing to control (%): 263%
[1]
  EC50: 0.01 to 0.03 µM
